Source: publication PMC4403311, “Making water-soluble integral membrane proteins in vivo using an amphipathic protein fusion strategy” (Nature Communications, 2015)
“And” between values parts separate entries of the source, which are not always exact repeats. Equal values may be shown once. Read-outs that look alike come from different tables or passages of the source.

B1: ΔspMBP-EmrE-ApoAI* (other)
chain: MNPYIYLGGAILAEVIGTTLMKFSEGFTRLWPSVGTIICYCASFWLLAQTLAYIPTGIAYAIWSGVGIVLISLLSWGFFGQRLDLPAIIGMMLICAGVLIINLLSRSTPHLKLLDNWDSVTSTFSKLREQLGPVTQEFWDNLEKETEGLRQEMSKDLEEVKAKVQPYLDDFQKKWQEEMELYRQKVEPLRAELQEGARQKLHELQEKLSPLGEEMRDRARAHVDALRTHLAPYSDELRQRLAARLEALKENGGARLAEYHAKATEHLSTLSEKAKPALEDLRQGLLPVLESFKVSFLSALEEYTKKLNTQ
B2: ΔspMBP-cyt b5-ApoAI* (other)
chain: MAEQSDEAVKYYTLEEIQKHNHSKSTWLILHHKVYDLTKFLEEHPGGEEVLREQAGGDATENFEDVGHSTDAREMSKTFIIGELHPDDRPKLNKPPETLITTIDSSSSWWTNWVIPAISAVAVALMYRLYMAEDLKLLDNWDSVTSTFSKLREQLGPVTQEFWDNLEKETEGLRQEMSKDLEEVKAKVQPYLDDFQKKWQEEMELYRQKVEPLRAELQEGARQKLHELQEKLSPLGEEMRDRARAHVDALRTHLAPYSDELRQRLAARLEALKENGGARLAEYHAKATEHLSTLSEKAKPALEDLRQGLLPVLESFKVSFLSALEEYTKKLNTQ

Tests used:
[1] = biological target: T1, detergent-solubilized EmrE (Escherichia coli, UniProt P23895); experiment: tryptophan fluorescence quenching titration (excitation […] nm); type: binding
T1 construct: full-length EmrE (110 aa), organic-extracted, solubilized in DDM, purified from E. coli BL21(DE3); unfused

[2] = biological target: the molecule itself; experiment: SEC; detergent-free fusion proteins after affinity purification; SEC buffer 20 mM Tris pH 7.5, 50 mM NaCl, 1 mM EDTA pH 8.0; column calibrated with Bio-Rad standards; self-association of the fusion

Row | Molecule | stoichiometry N [2] | also measured
1 | c1ccc([P+](c2ccccc2)(c2ccccc2)c2ccccc2)cc1 [tetraphenylphosphonium] | – | Kd ([1]; 20 mM Tris-HCl pH 7.5, 150 mM NaCl, 0.08% w/v DDM, 10 μM protein, room temperature): higher for ApoAI*-solubilized EmrE compared with its detergent-solubilized counterpart
2 | CC[n+]1c(-c2ccccc2)c2cc(N)ccc2c2ccc(N)cc21 [ethidium bromide] | – | Kd ([1]; read-out: Kd): 5.4 ± 0.47 µM
3 | B1 | 2 and 4 | –
4 | B2 | 8 and 4 | –
